Experimental data taken from the SangsterLogP compilation.

logP	Compound
2.37	OCc1cccc2ccccc12
2.26	O=Cc1cccc(Cl)c1
2.43	CC(=O)c1cccc(Cl)c1
2.02	O=[N+]([O-])c1cccc(F)c1
3.22	Cc1cc2ccccc2o1
1.86	O=[N+]([O-])c1cc(F)ccc1F
2.03	O=[N+]([O-])c1cc(F)cc(F)c1
2.58	CC(=O)c1cccc(Br)c1
2.9	Oc1ccc2c(c1)CCCC2
2.68	CC(O)c1ccc2ccccc2c1 (configuration not stated)
1.98	OC1CCCc2ccccc21 (configuration not stated)
2.24	Oc1cc2ccccc2cc1O
2.28	CC(=O)c1ccccc1Br
2.28	O=Cc1ccccc1Cl
2.89	OCC1c2ccccc2-c2ccccc21
2.93	CCCc1ccccc1O
1.9	Oc1ccc2cc(O)ccc2c1
2.19	Oc1cccc2c(O)cccc12

Compound	logP
O=C(CBr)c1ccccc1	2.19
CC(=O)c1ccc(Br)cc1	2.57
O=[N+]([O-])c1ccccc1F	1.84
O=[N+]([O-])c1ccc(F)cc1	1.89
